The term ED50 denotes the midpoint of the dose-response relation. Usually LD50 stands for the dose at which mortality reaches 50%. High values mean lower toxicity, low ones greater toxicity. In general, IC50 refers to the point on the concentration scale where inhibition reaches its midpoint.

Consider one compound from US4542153A, “Methods for changing calcium metabolism within the cells of a mammal” (The Ohio State University Research Foundation, priority 1983, dated 1985).

The subject of data set [1] is calcium-induced arrhythmias in rats. In words: Calcium-induced arrhythmias (CaCl2 injected i.v. into anesthetized rats). An excerpt:
The experimental method used was that described in Lynch J. J., Rahwan R. G., Witiak D. T.: Effects of 2-substituted-3-dimethylamino-5,6-methylenedioxyindenes on calcium-inducedarrhythmias, J. Cardiovasc. Pharmacol. 3: 49-60 (1981). Male Sprague-Dawley rats weighing 180-250 grams were anesthetized with sodium pentobarbital and a cannula was inserted into the left jugular vein for drug administration. Electrocardiograph equipment was connected to the rat and the lead II was continuously monitored. The compound under test, dissolved in 5% dextrose solution, was administered into the jugular vein of anesthetized rats over a 40 second period. Ten minutes after this treatment, an acute dose of 1 ml/kg of a 10% CaCl2.2H2 O solution was injected into the jugular vein over a period of 10 seconds. The arrhythmias resulting from the calcium administration were graded according to the following criteria: (a) initial change in heart rate following calcium administration; (b) incidences of sinoatrial block, atrioventricular block, ectopic beats, and ventricular flutter and fibrillation; (c) time required for reversion to control ECG; and (d) incidence of mortality.

Data set [2] deals with chloroform anoxia arrhythmia in mice. In words: Chloroform Anoxia Assay (chloroform-induced ventricular fibrillation). It is filed as in vivo, Female Swiss albino mice. The note with it: for ED50: i.p., 10 min before chloroform, table: mean values and 95% confidence limits, 10 min. The procedure:
The same four compounds were tested for their ability to protect mice from chloroform anoxia by the classical chloroform inhalation procedure described in Lawson J. W.: Antiarrhythmic activity of some isoquinoline derivatives determined by a rapid screening procedure in the mouse, J. Pharmacol. Exp. Ther. 160: 22-31, (1968). In this method, chloroform inhalation leading to respiratory arrest produces ventricular fibrillation. Female Swiss albino mice procured from Laboratory Supply Company, Indianapolis, Indiana, weighing 16-22 g, were pretreated intraperitoneally with the compound under test dissolved in a 5% dextrose solution 10 minutes before exposure to chloroform in a closed container containing chloroform-saturated cotton. The mice were removed from the chloroform atmosphere immediately after respiratory arrest and the electrocardiograph lead II monitored. The ED 50 and 95% confidence limits calculated for the anti-arrhythmic agents by the standard method of Litchfield and Wilcoxon.

The test system of a further data set is mice. In words: Toxicity Tests (intraperitoneal LD50). It is filed as in vivo. As to conditions: i.p., table: mean values and 95% confidence limits.
The test system of the next data set is isolated left atria. Briefly: Effects on isolated guinea pig atria: electrically driven left atria. Format: cell-based. An excerpt: (§1) The effects of pr-MDI, bu-MDI and Q-bu-MDI on the mechanical and electrical behavior of isolated guinea pig atria were investigated by the method of H. Nawrath, J. Pharmacol. Exp. Ther., 16, 176-182 (1980). The compounds were investigated over the concentration range of 10^-8 to 3×10^-4 M.
(§2) English short-haired guinea pigs, supplied by Carr Animal Supply, of Powell, Ohio, weighing 300-600 g. were killed by a blow on the head and both atria of the animal were quickly dissected out and suspended in a water-jacketed organ bath containing Krebs-Henseleit solution through which a 95% oxygen/5% carbon dioxide mixture was bubbled at 32° C. The solution contained 6.92 g/l of sodium chloride, 0.35 g/l of potassium chloride, 0.29 g/l of magnesium […] heptahydrate, 0.3 g/l of calcium chloride dihydrate, 0.16 g/l of potassium dihydrogen phosphate, 2.1 g/l of sodium bicarbonate and 2.1 g/l of dextrose. The contractile force generated by the isolated artria was recorded isometrically under a 500 mg. preload using a Narco Biosystems force transducer connected to a physiograph DMP-4B recorder, both the transducer and the recorder being obtained from E & M Instrument Co. of Houston, Texas.
The isolated left atria were electrically driven by square wave impulses of 3 milliseconds duration at a frequency of 3 Hz. and a voltage of twice the threshold voltage, delivered by a Grass S9 stimulator obtained from Grass Instrument Co., of Quincy, Massachusetts. Two platinum electrodes were used for the stimulation, the anode being in direct contact with the atrial tissue while the cathode had the form of a ring suspended 2.5 centimeters above the anode. Before redetermination of the threshold voltage and generation of a predrug (control) frequency-force profile over the range of 1-5 Hz., an equilibriation time of one hour was allowed. The system was then re-equilibriated at 3 Hz. and twice the threshold voltage as before, then one cumulative dose-response curve of contractile force for one test compound was obtained, followed immediately by redetermination of the threshold voltage and the generation of a post-drug frequency-force profile.
A paired Student's t-test was used to compare predrug and postdrug threshold voltages for each left atrial preparations as well as to compare developed tension at each frequency in the profile of each left atrial preparation. P values of less than 0.05 were considered statistically significant.

Data set [3] deals with spontaneously beating right atria. Briefly: Effects on isolated guinea pig atria: spontaneously beating right atria. It is filed as cell-based.
Text: as §1, §2
Spontaneously beating right atria were tested in a similar manner.

In data set [4] the test system is thoracic aorta strips contracted with norepinephrine. Briefly: Vasodilator activity: norepinephrine-contracted aortic strips. It is filed as cell-based, male Sprague-Dawley rats. An excerpt: (§3) Pr-MDI, bu-MDI, Q-bu-MDI and the compounds of Formulae IIIA, IIIB and IVA having the two R1 groups together forming a methylene group, each R3 a methyl group and R2 an n-propyl group or n-butyl group (the compounds of Formula III are hereinafter abbreviated as sat-pr-MDI and sat-bu-MDI respectively, reference being made where necessary to the cis isomer of Formula III A or the trans isomer of Formula III B while the compounds of Formula IV are similarly referred to as cis sat-Q-pr-MDI and cis sat-Q-bu-MDI) were tested for vasodilator activity by the method of R. F. Furchgott and S. Bhadrakom, J. P. Pharmacol. Ex. Ther., 108, 129-143 (1953).
(§4) The vasodilator activity tests were conducted on male Sprague-Dawley rats, obtained from Harlan Industries, Inc., Cumberland, Indiana. The rats, weight 250-300 g., were sacrified by cervical dislocation and a 2.5 cm. segment of the thoracic aorta was removed and rinshed in physiological buffer. Each aortic segment was cleaned of connective tissue and cut spirally two yield to strips, each 3 by 15 mm. Each strip was mounted isometrically under a tension of 1 g in a 10 ml. tissue bath thermostatically maintained at 37° C. and containing a normal physiological solution aerated with a 95% oxygen/5% carbon dioxide mixture. Forces generated by the strip were monitored using a Grass FT03 isometric transducer coupled to a Grass module 7D polygraph recorder, both the transducer and the recorder being obtained from Grass Instrument Co., of Quincy, Mass.
(§5) After the aortic tissue had been allowed to equilibriate for 1-1.5 hours in the normal physiologic solution, tissue contraction was induced by introducing either 10^-7 M norepinephrine or 40mM potassium chloride buffer to the tissue bath.
(§6) To avoid interference by loss of tension due to time dependent tissue fatigue, separate preliminary experiments were performed to determine the degree of tissue relaxation due to such fatigue and the value of the control tension generated by norepinephrine or potassium chloride prior to the addition of the test compounds was adjusted whenever the duration of the experiment was such that fatigue could be expected to cause more than a 6% loss of tension. […] All concentrations mentioned hereinafter represent the final concentration of the test compound after dilution in the tissue bath.
(§7) The figures of concentration against percent response data obtained from each aortic tissue were transformed to its appropriate probit value and IC50 values were then estimated using linear regression analysis. The normal physiological solution contained 6.9 g/l of sodium chloride, 0.35 g/l of potassium chloride, 0.11 g/l of magnesium chloride hexahydrate, 0.138 g/l of sodium dihydrogen phosphate, 2.1 g/l of sodium bicarbonate, 0.01 g/l of EDTA, 0.368 g/l of calcium chloride dihydrate and 2.0 g/l of dextrose. The high potassium buffers were obtained by substituting potassium chloride for sodium chloride on an equimolar basis to maintain tonicity.

For data set [5], the system named is thoracic aorta strips contracted with potassium chloride. Briefly: Vasodilator activity: potassium chloride-contracted aortic strips. The note with it: rat aorta contracted with 40 mM potassium chloride; read-out: IC50 (mean and range of SEM) KCl. It is filed as cell-based, male Sprague-Dawley rats.
Text: as §3, §4, §5, §6, §7

The conditions of data set [6]: tested acutely and subchronically; earlier published work; cited from earlier work.

SMILES strings stand for the structures.

Regarding `CCCCC1=Cc2cc3c(cc2C1N(C)C)OCO3.Cl` (centres unmarked) [bu-MDI, 2-butyl-5-6methylenedioxyindene-1-dimethylammonium hydrochloride, reference compound], the “potency and safety against calcium-induced arrhythmia versus verapamil” value in data set [1] (earlier work of applicants) is “more potent and safer then verapamil”. In addition, in data set [1] (i.v., 10 min before CaCl2), the “concentration effective against calcium-induced arrhythmias” value was 3.75 mg/kg. The deleterious side effects entry in data set [1] (i.v., Q-bu-MDI at 0.5 mg/kg, pr-MDI and bu-MDI at 3.75 mg/kg) was “without deleterious side effects”. Besides, in data set [2] (ED50 from chloroform anoxia, LD50 i.p.), the “Therapeutic Index (LD50/ED50)” value is on record as 4.2. Also, in data set [2] (earlier work of applicants), the “potency against chloroform/anoxia-induced arrhythmia versus quinidine” value is on record as “more potent than quinidine”. In addition, the median effective dose (ED50) was determined as 44 mg/kg in data set [2] (n = 40, hydrochloride) and 44.0 mg/kg in data set [2] (n = 40, listed as Bu--MDI, hydrochloride). The “Antiarrhythmic Potency” value in data set [2] (quinidine = 1.00, chloroform anoxia) is recorded as 1.52. In addition, the median lethal dose (LD50) in the data set on mice amounted to 185 mg/kg. In addition, in the data set with isolated left atria (3×10^-4 M), the “effect on frequency-force profile/relation of the stimulated left atrium” value is on record as “significant depression of the frequency-force profile”. Moreover, the “effect on threshold voltage required to drive the atria” value in the data set on isolated left atria (3×10^-4 M) is recorded as “significantly decreased the threshold voltage”. Also, the “effect on contractile force of the electrically stimulated left atrium” value in the data set on isolated left atria (10^-8 to 3×10^-4 M) is “considerably greater than that of Q-bu-MDI”. In addition, the “time to sustained peak effect, right atria, highest concentrations” value in data set [3] (10^-4 M and 3×10^-4 M) was 5 to 10 min. Further, in data set [3] (10^-8 to 3×10^-4 M), the “effect on spontaneous atrial rate” value is “substantially identical to that of Q-bu-MDI”. In addition, the “effect on the contractile force of right atria” value in data set [3] (except at 3×10^-4 M for Q-bu-MDI) was “much greater negative inotropy”. The “relaxation of the aortic tissue” value in data set [4] (norepinephrine- or KCl-treated tissue) is listed as “relaxed the aortic tissue”. In data set [4] (norepinephrine-treated aortic tissue), the “comparative vasodilator activity, norepinephrine-treated tissue” value is “considerably more active than Q-bu-MDI”. Besides, the IC50 in data set [4] (rat aorta contracted with 10^-7 M norepinephrine, read-out: IC50 (mean and range of SEM) Norepinephrine) amounted to 74.1 µM; in data set [5] it was 20.3 µM. Moreover, the toxicity entry in data set [6] was “remarkable lack of toxicity”.
